Measurements published in patent US20080305186A1, “Method and Composition for the Treatment of Cardiac Hypertrophy” (BOARD OF REGENTS, THE UNIVERSITY OF TEXAS SYSTEM, priority 2007, published 2008).

Test system: cardiac gene expression
Experiment: Microarray analysis of cardiac gene expression (GeneChip Mouse Genome 430 2.0)
Assay type: in vivo, mice
Details: for FC Transglutaminase 2, C polypeptide (Tgm2): CH vs normal FC 2.0
Experimental: Microarray Sample Preparation and Analysis. Animal hearts were rapidly removed, and the atria and right ventricles were cut and immediately plunged into TRIzol Reagent (Life Technologies). Total RNA was isolated following the manufacturer's instructions, purified by phenol-chloroform extraction and then ethanol precipitation, and 20 μg further processed for microarray analysis. Briefly, cDNA synthesis, in vitro transcription, and labeling and fragmentation to produce the oligonucleotide probes were performed as instructed by the GeneChip manufacturer (Affymetrix). The probes were first hybridized to a test array (Affymetrix) and then to the GeneChip Mouse Genome 430 2.0 Array, using the GeneChip Hybridization Oven 640. The chips were washed in a GeneChip Fluidics Station 450 (Affymetrix), and the results were visualized with a GeneChip G7 scanner (Affymetrix). RMA normalization, pairwise comparisons, Student's t test and Benjamini and Hochberg correction were subsequently performed using GeneSifter (VizX Labs, Seattle, Wash.) and Spotfire DecisionSite 8.3 (Spotfire, Inc., Somerville, Mass.).
Effects on Gene Expression Profile. […] One mouse heart was used for each array, and was performed in triplicate, generating a total of 12 arrays. GeneSifter was used to perform RMA normalization, pairwise comparisons of averaged signal intensity values, and Student's t-test with Benjamini and Hochberg correction, and Spotfire was used to perform pairwise comparisons. […] Additionally, genes that were altered between any two N or cardiac hypertrophy samples were removed, as these alterations most likely represented normal variations between mice.

C[C@H]1c2cccc(O)c2C(=O)C2=C(O)[C@]3(O)C(=O)C(C(N)=O)=C(O)[C@@H](N(C)C)[C@@H]3[C@@H](O)[C@@H]21 [doxycycline]
FC IBR domain containing 2 (Ibrdc2) (GenBank AV274826, vs mice given only isoproterenol): −2.1
FC Xanthine dehydrogenase (Xdh) (GenBank AV286265, heart, drug + isoproterenol vs isoproterenol-only mice, CH vs normal FC 3.9): −3.0 fold
FC UDP-N-acetyl-alpha-D-galactosamine:polypeptide N-acetylgalactosaminyltransferase-like 2 (Galntl2) (GenBank AV290688, heart, drug + isoproterenol vs isoproterenol-only mice, CH vs normal FC 3.3): −2.8 fold
FC Ras association (RalGDS/AF-6) domain family 4 (Neuropeptide signaling) (GenBank AV291679, vs mice given only isoproterenol): −2.2
FC Syntaxin 3 (Stx3) (GenBank AV296217, vs mice given only isoproterenol): −1.6
FC EST (GenBank AV318727, vs mice given only isoproterenol): 2.6
FC F-box-WD40 repeat protein 6 (Fbxw6) (GenBank AV338062, vs mice given only isoproterenol): 1.9
FC EST (GenBank AW123929, vs mice given only isoproterenol): −1.8
FC EST (GenBank AW208574, vs mice given only isoproterenol): −1.9
FC Myristoylated alanine rich protein kinase C substrate (Marcks) (GenBank AW546141, vs mice given only isoproterenol): 1.7
FC Transmembrane protein 23 (Tmem23) (GenBank AW985925, heart, drug + isoproterenol vs isoproterenol-only mice, CH vs normal FC 2.8): −2.1 fold
FC Nuclear factor, interleukin 3, regulated (Nfil3) (GenBank AY061760, vs mice given only isoproterenol): −2.5
FC RasGEF domain family, member 1B (Rasgef1b) (GenBank BB003229, vs mice given only isoproterenol): −2.4
FC Transglutaminase 2, C polypeptide (Tgm2) (GenBank BB041811, heart, drug + isoproterenol vs isoproterenol-only mice): −1.7 fold
FC EST (GenBank BB069531, vs mice given only isoproterenol): 2.1
FC G protein-coupled receptor 116 (Gprl16) (GenBank BB083808, vs mice given only isoproterenol): −2.0
FC EST (GenBank BB096843, vs mice given only isoproterenol): −1.8
FC RAN binding protein 9 (Ranbp9) (GenBank BB106402, vs mice given only isoproterenol): −2.6
FC EST (GenBank BB109391, vs mice given only isoproterenol): −1.8
FC Tumorsuppressor St7-like (St7l) (GenBank BB122084, heart, drug + isoproterenol vs isoproterenol-only mice, CH vs normal FC 2.3): −2.1 fold
FC Kyphoscoliosis peptidase (Ky) (GenBank BB126077, vs mice given only isoproterenol): 1.8
FC EST (GenBank BB127176, vs mice given only isoproterenol): −1.7
FC Endothelial differentiation sphingolipid G-protein-coupled receptor 1 (Edg1) (GenBank BB133079, vs mice given only isoproterenol): −2.4
FC Interferon induced transmembrane protein 6 (Ifitm6) (GenBank BB193024, vs mice given only isoproterenol): −3.3
FC RAS, dexamethasone-induced 1 (Rasd1) (GenBank BB217136, vs mice given only isoproterenol): −3.3
FC EST (GenBank BB219003, vs mice given only isoproterenol): −2.1
FC Inner membrane protein, mitochondrial (Immt) (GenBank BB222675, vs mice given only isoproterenol): 4.9
FC EST (GenBank BB236747, vs mice given only isoproterenol): −1.7
FC Procollagen-proline, 2-oxoglutarate 4-dioxygenase (proline 4-hydroxylase), alpha 1 polypeptide (P4ha1) (GenBank BB253720, vs mice given only isoproterenol): 1.9
FC MAD homolog 1 (Smad1) (GenBank BB257769, vs mice given only isoproterenol): −1.9
FC EST (GenBank BB312992, vs mice given only isoproterenol): −2.1
FC Zi finger and BTB domain containing 16 (Zbtb16) (GenBank BB326368, heart, drug + isoproterenol vs isoproterenol-only mice, CH vs normal FC 5.1): −1.8 fold
FC Kelch-like 24 (Khl24) (GenBank BB328076, vs mice given only isoproterenol): −2.2
FC Tissue inhibitor of metalloproteinase 4 (Timp4) (GenBank BB328405, heart, drug + isoproterenol vs isoproterenol-only mice, CH vs normal FC 5.6): −2.8 fold
FC Leucine-rich repeat-containing 8c (Lrrc8c) (GenBank BB333759, vs mice given only isoproterenol): −1.7
FC EST (GenBank BB335101, vs mice given only isoproterenol): 2.2
FC Insulin receptor substrate 1 (Irs1) (GenBank BB345784, vs mice given only isoproterenol): −1.7
FC Tribbles homolog 2 (Trib2) (GenBank BB354684, heart, drug + isoproterenol vs isoproterenol-only mice, CH vs normal FC −1.9): 1.6 fold
FC EST (GenBank BB374879, vs mice given only isoproterenol): 2.7
FC Transcription factor Dp 2 (Tfdp2) (GenBank BB405795, heart, drug + isoproterenol vs isoproterenol-only mice, CH vs normal FC 2.8): −2.2 fold
FC Inositol 1,4,5-trisphosphate 3-kinase B (Itpkb) (GenBank BB434111, vs mice given only isoproterenol): 2.5
FC EST (GenBank BB476794, vs mice given only isoproterenol): 1.9
FC Histone 1, H1e (Hist1h2be) (GenBank BB490701, vs mice given only isoproterenol): −1.7
FC RNA, U22 small nucleolar (GenBank BB493265, vs mice given only isoproterenol): −1.8
FC F-box and leucine-rich repeat protein 13 (Fbxl13) (GenBank BB503935, vs mice given only isoproterenol): 1.9
FC OTU domain, ubiquitin aldehyde binding 1 (Otub1) (GenBank BB534069, vs mice given only isoproterenol): 2.0
FC EST (GenBank BB535847, vs mice given only isoproterenol): −2.0
FC Transglutaminase 2, C polypeptide (Tgm2) (GenBank BB550124, heart, drug + isoproterenol vs isoproterenol-only mice): −1.7 fold
FC Von Willebrand factor homolog (Vwf) (GenBank BB667216, heart, drug + isoproterenol vs isoproterenol-only mice, CH vs normal FC 2.3): −1.7 fold
FC Dehydrogenase E1 and transketolase domain containing 1 (Dhtkd1) (GenBank BB667395, vs mice given only isoproterenol): −2.1
FC Fibroblast growth factor receptor 3 (Fgfr3) (GenBank BB732903, vs mice given only isoproterenol): −2.1
FC Period homolog 3 (Per3) (GenBank BB757992, vs mice given only isoproterenol): 2.3
FC Serine palmitoyltransferase, long chain base subunit 2 (Sptlc2) (GenBank BB794710, vs mice given only isoproterenol): −2.1
FC Nucleoplasmin 3 (Npm3) (GenBank BB811478, vs mice given only isoproterenol): 2.1
FC Heterogeneous nuclear ribonucleoprotein R (Hnrpr) (GenBank BB822465, vs mice given only isoproterenol): 1.8
FC Integrator complex subunit 3 (Ints3) (GenBank BC003209, vs mice given only isoproterenol): −2.2
FC Solute carrier family 39 (iron-regulated transporter), member 1 (Slc40a1) (GenBank BC003438, vs mice given only isoproterenol): −2.1
FC Transforming, acidic coiled-coil containing protein 2 (Tacc2) (GenBank BC004057, heart, drug + isoproterenol vs isoproterenol-only mice, CH vs normal FC 2.8): −2.1 fold
FC Lutheran blood group (Auberger b antigen iluded) (Bcam) (GenBank BC004826, vs mice given only isoproterenol): 1.6
FC Tubulin, beta 2c (Tubb2c) (GenBank BC005547, heart, drug + isoproterenol vs isoproterenol-only mice, CH vs normal FC −1.7): 2.5 fold
